Data set [1] has as its system human lung adenocarcinoma MV522. The conditions noted are these: in vivo.
Data set [2] shares this test system. Kind of data set: animal or person. The note with it: MV522, ip, read-out: life span.
The test system of data set [3] is HL-60 cells. In words: cells. The format is cell-based, human.
In data set [4] the test system is HL60 cells (myeloid). Kind of data set: cells. The format is cell-based, human. The note with it: for IC50: Homo sapiens, HL-60, 2 h, read-out: Two hour IC50.
Data set [5] relates to MV522. In words: cells. The data set is classed as cell-based. The note with it: Homo sapiens, MV522, 48 h, read-out: 48 hour IC50.
Data set [6] has as its system MV522 cells. In words: cells. The format is cell-based, human. The note with it: for IC50: Homo sapiens, MV522, 2 h, read-out: Two hour IC50.
Data set [7] concerns HL60 cells. Kind of data set: cells. The conditions noted are these: Homo sapiens, HL-60, 48 h, read-out: 48 hour IC50. The format is cell-based.
In data set [8] the test system is 8392 cells. In words: cells. The format is cell-based. The conditions noted are these: 48 h, read-out: 48 hour IC50.
In data set [9] the test system is HL60/MRI cells (human myeloid leukemia tumor cells). The note with it: in vivo, iv.
In data set [10] the test system is 8392 cells (B-cell). Kind of data set: cells. The format is cell-based. The note with it: 2 h, read-out: Two hour IC50.

Values joined by “and” are separate entries in the source; they are usually repeats but may differ in a detail not shown here. Equal entries are not always repeated. Where two headings read alike, the source gives them in different places.

For `COc1cccc2c1C(=O)c1c(O)c3c(c(O)c1C2=O)C[C@@](O)(C(=O)CO)C[C@@H]3O[C@H]1C[C@H](N)[C@H](O)[C@H](C)O1` [Adriamycin], the “life span versus control” value in [1] is recorded as “no significant increase in the life span”. Besides, the life span in [1] (ip, 2.6 mg/kg) is 98 ± 12% and 150 ± 25%.
As for `CC(=O)O[C@H]1C(=O)[C@@]2(C)[C@H]([C@H](OC(=O)c3ccccc3)[C@]3(O)C[C@H](OC(=O)[C@H](O)[C@@H](NC(=O)c4ccccc4)c4ccccc4)C(C)=C1C3(C)C)[C@]1(OC(C)=O)CO[C@@H]1C[C@@H]2O` [taxol], in data set [2], the response vs control in vivo at 4 mg/kg was 100 ± 10%, the response vs control in vivo at 6 mg/kg was 93 ± 22% and the response vs control in vivo at 20 mg/kg worked out at 113 ± 22%. Also, in data set [1], the “life span versus control” value is on record as “no significant increase in the life span” and the tumor growth response result is on record as “failed to inhibit tumor growth”. The compound also gave a life span in data set [1] (ip, 4 mg/kg) of 120 ± 10%. Besides, the drug toxicity entry in [1] (ip, 6 mg/kg) was “drug toxicity was now killing the animals”.
As usually defined, the IC50 is the concentration that inhibits the measured activity by half. Consider `C[C@@]1(CO)[C@H](O)CC[C@@]2(C)[C@H]1CC[C@H]1C[C@@H]3C[C@@]12CC[C@]3(O)CO` [Aphidocolin], for which the IC50 in data set [3] (read-out: IC50) turned out to be 2100 nM.
As to `CC1=C(Br)C2=C(C)C3(CC3)[C@@](C)(O)C(=O)C2=C1` [6-bromoacylfulvene, 6-Bromoacylfulvene], the “toxicity to target tumor cells” value in data set [4] and in [6] was “markedly toxic” each time. Further, the IC50 in data set [4] is 803 ± 88 nM; in data set [5], 356 ± 61 nM; in data set [6], 4180 nM; in data set [7] it was 412 ± 21 nM; in data set [8], 1190 nM. Besides, the “efficacy in this model” value in data set [1] is on record as “effective in this model”.
For the compound `CC1=CC2=C(C)C3(CC3)[C@@](C)(O)C(=O)C2=C1` [Illudofulvene], the concentration for half-maximal inhibition (IC50) stood at 998 ± 244 nM in data set [4]; 349 ± 23 nM in data set [5]; 66.4 nM in [10]; 727 ± 180 nM in data set [6]; 364 ± 74 nM in data set [7]; 500 nM in data set [3] (Homo sapiens, HL-60). Besides, the IC50 in data set [8] is 833 ± 152 nM. In addition, in [9], the “adverse effects (food or water intake, body weight)” value is reported as “did not display any evidence of adverse effect”. Further, in data set [9], the “inhibition of tumor growth” value is on record as “effective at inhibiting tumor growth”.
As to `CO[C@@]12[C@H](COC(N)=O)C3=C(C(=O)C(C)=C(N)C3=O)N1C[C@@H]1N[C@@H]12` [mitomycin C], in data set [1], the “life span versus control” value is reported as “no significant increase in the life span”. The life span in [1] (ip, 2.4 mg/kg) is 111 ± 2% and 149 ± 12%.
As to `COc1ccc(CC2=C(C)C=C3C(=O)[C@](C)(O)C4(CC4)C(C)=C32)cc1` [6-(p-methoxybenzyl)acylfulvene], the IC50 amounted to 1960 nM in [4]; 1550 nM in [5]; 35700 nM in data set [10]; 2040 nM in data set [6]; 1050 nM in data set [7]; 7140 nM in [8].
For `Cc1cc2c(c(C)c1CCO)C(=O)[C@@H](C)[C@@H]2O` [Pterosin C], the IC50 in data set [3] (read-out: IC50) is 12500 nM.
As for `CC1=C(I)C2=C(C)C3(CC3)[C@@](C)(O)C(=O)C2=C1` [6-iodoacylfulvene, 6-Iodoacylfulvene], the response vs control in vivo at 20 mg/kg in [2] stood at 120 ± 34%. The “toxicity to target tumor cells” value in data set [4] and in data set [6] was “markedly toxic” each time. For the same compound, the IC50 amounted to 2600 nM in data set [4]; 556 ± 47 nM in [5]; 10300 nM in [10]; 956 ± 152 nM in [6]; 290 ± 12 nM in [7]; 1700 nM in data set [8].
In turn, `CC1=Cc2cc(C)c(C)c(C)c2C1=O` [2,5,6,7-tetramethyl-1-indenone, 2,5,6,7-Tetramethyl-1-Indenone] had a half-maximal inhibitory concentration (IC50) in [3] (Homo sapiens, HL-60) of 475 nM.
On to `CC1=C(Cc2ccc(O)cc2)C2=C(C)C3(CC3)[C@@](C)(O)C(=O)C2=C1` [6-(p-hydroxybenzyl)acylfulvene, 6-(p-Hydroxybenzyl)acylfulvene], for which the response vs control in vivo at 15 mg/kg in data set [2] is 125 ± 16%. Also, in data set [2], the response vs control in vivo at 20 mg/kg amounted to 126 ± 22%. The IC50 in data set [4] worked out at 264 ± 38 nM; in data set [5], 615 ± 56 nM; in data set [10], 95200 nM; in data set [6], 1180 nM; in data set [7], 382 ± 39 nM; in [8], 11100 nM. Further, the “efficacy in this model” value in [1] is “effective in this model”.
In the case of `O=NN(CCCl)C(=O)NCCCl` [BCNU], inhibition in data set [3] (Homo sapiens, HL-60) was half-maximal at 23300 nM (IC50).
Regarding `CC(=O)OCC1=C(C)C=C2C(=O)[C@](C)(O)C3(CC3)C(C)=C21` [6-acetoxymethylacylfulvene], the IC50 was 3330 nM in data set [4]; 486 ± 42 nM in data set [5]; 47500 nM in [10]; 1070 nM in data set [6]; 806 ± 30 nM in [7]; 4430 nM in data set [8].

Source of the values: patent US5563176A (priority 1994, dated 1996).
